Reference: PubChem BioAssay (NCI)
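Dose response: 5 concentrations. Exposure: 48 h. Format: 96-well plates. Endpoint: linear interpolation; highest concentration if not reached. TGI denotes the concentration required for complete inhibition of growth.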

Tests used:
Test in all cases: NCI-60 cell line screen, 48 h
786-0 renal = tested on: 786-0 renal
A498 renal = tested on: A498 renal
A549 NSCLC = tested on: A549 NSCLC
ACHN renal = tested on: ACHN renal
BT-549 breast = tested on: BT-549 breast
CAKI-1 renal = tested on: CAKI-1 renal
CCRF-CEM leukemia = tested on: CCRF-CEM leukemia
COLO 205 colon = tested on: COLO 205 colon
DU-145 prostate = tested on: DU-145 prostate
EKVX NSCLC = tested on: EKVX NSCLC
HCC-2998 colon = tested on: HCC-2998 colon
HCT-116 colon = tested on: HCT-116 colon
HCT-15 colon = tested on: HCT-15 colon
HL-60(TB) leukemia = tested on: HL-60(TB) leukemia
HOP-62 NSCLC = tested on: HOP-62 NSCLC
HOP-92 NSCLC = tested on: HOP-92 NSCLC
HS 578T breast = tested on: HS 578T breast
HT29 colon = tested on: HT29 colon
IGROV1 ovarian = tested on: IGROV1 ovarian
K-562 leukemia = tested on: K-562 leukemia
KM12 colon = tested on: KM12 colon
LOX IMVI melanoma = tested on: LOX IMVI melanoma
M14 melanoma = tested on: M14 melanoma
MALME-3M melanoma = tested on: MALME-3M melanoma
MCF7 breast = tested on: MCF7 breast
MDA-MB-231 breast = tested on: MDA-MB-231 breast
MDA-MB-435 = tested on: MDA-MB-435
MDA-N = tested on: MDA-N
MOLT-4 leukemia = tested on: MOLT-4 leukemia
NCI-H226 lung = tested on: NCI-H226 lung
NCI-H23 lung = tested on: NCI-H23 lung
NCI-H460 lung = tested on: NCI-H460 lung
NCI-H522 lung = tested on: NCI-H522 lung
NCI/ADR-RES ovarian = tested on: NCI/ADR-RES ovarian
OVCAR-3 ovarian = tested on: OVCAR-3 ovarian
OVCAR-4 ovarian = tested on: OVCAR-4 ovarian
OVCAR-5 ovarian = tested on: OVCAR-5 ovarian
OVCAR-8 ovarian = tested on: OVCAR-8 ovarian
PC-3 prostate = tested on: PC-3 prostate
RPMI-8226 leukemia = tested on: RPMI-8226 leukemia
RXF 393 renal = tested on: RXF 393 renal
SF-268 CNS = tested on: SF-268 CNS
SF-295 CNS = tested on: SF-295 CNS
SF-539 CNS = tested on: SF-539 CNS
SK-MEL-2 melanoma = tested on: SK-MEL-2 melanoma
SK-MEL-28 melanoma = tested on: SK-MEL-28 melanoma
SK-MEL-5 melanoma = tested on: SK-MEL-5 melanoma
SK-OV-3 ovarian = tested on: SK-OV-3 ovarian
SN12C renal = tested on: SN12C renal
SNB-19 CNS = tested on: SNB-19 CNS
SNB-75 CNS = tested on: SNB-75 CNS
SR leukemia = tested on: SR leukemia
SW-620 colon = tested on: SW-620 colon
T-47D breast = tested on: T-47D breast
TK-10 renal = tested on: TK-10 renal
U251 CNS = tested on: U251 CNS
UACC-257 melanoma = tested on: UACC-257 melanoma
UACC-62 melanoma = tested on: UACC-62 melanoma
UO-31 renal = tested on: UO-31 renal

OC1C[C@H](c2ccccc2)C2(C(O)c3ccccc3C2O)[C@@H](c2ccccc2)C1 (stereo not given in full)
TGI (786-0 renal): > 100 µM
TGI (A498 renal): > 100 µM
TGI (A549 NSCLC): > 100 µM
TGI (ACHN renal): > 100 µM
TGI (BT-549 breast): > 100 µM
TGI (CAKI-1 renal): > 100 µM
TGI (CCRF-CEM leukemia): > 100 µM
TGI (COLO 205 colon): > 100 µM
TGI (DU-145 prostate): > 100 µM
TGI (EKVX NSCLC): > 100 µM
TGI (HCC-2998 colon): > 100 µM
TGI (HCT-116 colon): > 100 µM
TGI (HCT-15 colon): > 100 µM
TGI (HL-60(TB) leukemia): > 100 µM
TGI (HOP-62 NSCLC): > 100 µM
TGI (HOP-92 NSCLC): > 100 µM
TGI (HS 578T breast): > 100 µM
TGI (HT29 colon): > 100 µM
TGI (IGROV1 ovarian): > 100 µM
TGI (K-562 leukemia): > 100 µM
TGI (KM12 colon): > 100 µM
TGI (LOX IMVI melanoma): > 100 µM
TGI (M14 melanoma): > 100 µM
TGI (MALME-3M melanoma): > 100 µM
TGI (MCF7 breast): > 100 µM
TGI (MDA-MB-231 breast): > 100 µM
TGI (MDA-MB-435): > 100 µM
TGI (MDA-N): > 100 µM
TGI (MOLT-4 leukemia): > 100 µM
TGI (NCI-H226 lung): > 100 µM
TGI (NCI-H23 lung): > 100 µM
TGI (NCI-H460 lung): > 100 µM
TGI (NCI-H522 lung): > 100 µM
TGI (NCI/ADR-RES ovarian): > 100 µM
TGI (OVCAR-3 ovarian): > 100 µM
TGI (OVCAR-4 ovarian): > 100 µM
TGI (OVCAR-5 ovarian): > 100 µM
TGI (OVCAR-8 ovarian): > 100 µM
TGI (PC-3 prostate): > 100 µM
TGI (RPMI-8226 leukemia): > 100 µM
TGI (RXF 393 renal): > 100 µM
TGI (SF-268 CNS): > 100 µM
TGI (SF-295 CNS): > 100 µM
TGI (SF-539 CNS): > 100 µM
TGI (SK-MEL-2 melanoma): > 100 µM
TGI (SK-MEL-28 melanoma): > 100 µM
TGI (SK-MEL-5 melanoma): > 100 µM
TGI (SK-OV-3 ovarian): > 100 µM
TGI (SN12C renal): > 100 µM
TGI (SNB-19 CNS): > 100 µM
TGI (SNB-75 CNS): > 100 µM
TGI (SR leukemia): 68.1 µM
TGI (SW-620 colon): > 100 µM
TGI (T-47D breast): > 100 µM
TGI (TK-10 renal): > 100 µM
TGI (U251 CNS): > 100 µM
TGI (UACC-257 melanoma): > 100 µM
TGI (UACC-62 melanoma): > 100 µM
TGI (UO-31 renal): > 100 µM

C=C(C)CNC(=S)N(N)c1ccc2ccccc2c1
TGI (786-0 renal): > 100 µM
TGI (A549 NSCLC): > 100 µM
TGI (ACHN renal): > 100 µM
TGI (BT-549 breast): > 100 µM
TGI (CCRF-CEM leukemia): > 100 µM
TGI (COLO 205 colon): > 100 µM
TGI (DU-145 prostate): > 100 µM
TGI (EKVX NSCLC): 88.9 µM
TGI (HCC-2998 colon): > 100 µM
TGI (HCT-116 colon): > 100 µM
TGI (HCT-15 colon): 28.7 µM
TGI (HL-60(TB) leukemia): > 100 µM
TGI (HOP-62 NSCLC): > 100 µM
TGI (HOP-92 NSCLC): > 100 µM
TGI (HS 578T breast): > 100 µM
TGI (HT29 colon): > 100 µM
TGI (IGROV1 ovarian): > 100 µM
TGI (K-562 leukemia): > 100 µM
TGI (KM12 colon): 62.4 µM
TGI (LOX IMVI melanoma): > 100 µM
TGI (M14 melanoma): > 100 µM
TGI (MALME-3M melanoma): > 100 µM
TGI (MCF7 breast): > 100 µM
TGI (MDA-MB-231 breast): > 100 µM
TGI (MDA-MB-435): > 100 µM
TGI (MDA-N): > 100 µM
TGI (MOLT-4 leukemia): > 100 µM
TGI (NCI-H226 lung): > 100 µM
TGI (NCI-H23 lung): > 100 µM
TGI (NCI-H460 lung): > 100 µM
TGI (NCI-H522 lung): > 100 µM
TGI (NCI/ADR-RES ovarian): > 100 µM
TGI (OVCAR-3 ovarian): > 100 µM
TGI (OVCAR-4 ovarian): > 100 µM
TGI (OVCAR-5 ovarian): 77.4 µM
TGI (OVCAR-8 ovarian): > 100 µM
TGI (PC-3 prostate): > 100 µM
TGI (RPMI-8226 leukemia): > 100 µM
TGI (RXF 393 renal): > 100 µM
TGI (SF-268 CNS): > 100 µM
TGI (SF-295 CNS): > 100 µM
TGI (SF-539 CNS): > 100 µM
TGI (SK-MEL-28 melanoma): > 100 µM
TGI (SK-MEL-5 melanoma): > 100 µM
TGI (SK-OV-3 ovarian): > 100 µM
TGI (SN12C renal): > 100 µM
TGI (SNB-19 CNS): > 100 µM
TGI (SNB-75 CNS): > 100 µM
TGI (SR leukemia): > 100 µM
TGI (SW-620 colon): > 100 µM
TGI (T-47D breast): > 100 µM
TGI (TK-10 renal): 71.4 µM
TGI (U251 CNS): > 100 µM
TGI (UACC-257 melanoma): > 100 µM
TGI (UACC-62 melanoma): 76.8 µM
TGI (UO-31 renal): > 100 µM
